Assay results as given in US20260116889A1, “MACROCYCLIC PYRIMIDINE DERIVATIVE, METHOD FOR PREPARING SAME, AND PHARMACEUTICAL COMPOSITION FOR PREVENTION OR TREATMENT OF NEURODEGENERATIVE DISEASE CONTAINING SAME AS ACTIVE INGREDIENT” (WHAN IN PHARMACEUTICAL CO., LTD., priority 2021, published 2026).

Legend:
[1] = biological target: T1, wild type LRRK2 (leucine-rich repeat kinase 2) (Homo sapiens, UniProt Q5S007); assay: HotSpot radiometric kinase assay (Reaction Biology), LRRK2 wild type inhibitory activity; format: biochemical; settings: 10 μM ATP, 25° C., 120 min
T1 construct: purchased Reaction Biology Corporation
T1 sequence (Q5S007 whole entry): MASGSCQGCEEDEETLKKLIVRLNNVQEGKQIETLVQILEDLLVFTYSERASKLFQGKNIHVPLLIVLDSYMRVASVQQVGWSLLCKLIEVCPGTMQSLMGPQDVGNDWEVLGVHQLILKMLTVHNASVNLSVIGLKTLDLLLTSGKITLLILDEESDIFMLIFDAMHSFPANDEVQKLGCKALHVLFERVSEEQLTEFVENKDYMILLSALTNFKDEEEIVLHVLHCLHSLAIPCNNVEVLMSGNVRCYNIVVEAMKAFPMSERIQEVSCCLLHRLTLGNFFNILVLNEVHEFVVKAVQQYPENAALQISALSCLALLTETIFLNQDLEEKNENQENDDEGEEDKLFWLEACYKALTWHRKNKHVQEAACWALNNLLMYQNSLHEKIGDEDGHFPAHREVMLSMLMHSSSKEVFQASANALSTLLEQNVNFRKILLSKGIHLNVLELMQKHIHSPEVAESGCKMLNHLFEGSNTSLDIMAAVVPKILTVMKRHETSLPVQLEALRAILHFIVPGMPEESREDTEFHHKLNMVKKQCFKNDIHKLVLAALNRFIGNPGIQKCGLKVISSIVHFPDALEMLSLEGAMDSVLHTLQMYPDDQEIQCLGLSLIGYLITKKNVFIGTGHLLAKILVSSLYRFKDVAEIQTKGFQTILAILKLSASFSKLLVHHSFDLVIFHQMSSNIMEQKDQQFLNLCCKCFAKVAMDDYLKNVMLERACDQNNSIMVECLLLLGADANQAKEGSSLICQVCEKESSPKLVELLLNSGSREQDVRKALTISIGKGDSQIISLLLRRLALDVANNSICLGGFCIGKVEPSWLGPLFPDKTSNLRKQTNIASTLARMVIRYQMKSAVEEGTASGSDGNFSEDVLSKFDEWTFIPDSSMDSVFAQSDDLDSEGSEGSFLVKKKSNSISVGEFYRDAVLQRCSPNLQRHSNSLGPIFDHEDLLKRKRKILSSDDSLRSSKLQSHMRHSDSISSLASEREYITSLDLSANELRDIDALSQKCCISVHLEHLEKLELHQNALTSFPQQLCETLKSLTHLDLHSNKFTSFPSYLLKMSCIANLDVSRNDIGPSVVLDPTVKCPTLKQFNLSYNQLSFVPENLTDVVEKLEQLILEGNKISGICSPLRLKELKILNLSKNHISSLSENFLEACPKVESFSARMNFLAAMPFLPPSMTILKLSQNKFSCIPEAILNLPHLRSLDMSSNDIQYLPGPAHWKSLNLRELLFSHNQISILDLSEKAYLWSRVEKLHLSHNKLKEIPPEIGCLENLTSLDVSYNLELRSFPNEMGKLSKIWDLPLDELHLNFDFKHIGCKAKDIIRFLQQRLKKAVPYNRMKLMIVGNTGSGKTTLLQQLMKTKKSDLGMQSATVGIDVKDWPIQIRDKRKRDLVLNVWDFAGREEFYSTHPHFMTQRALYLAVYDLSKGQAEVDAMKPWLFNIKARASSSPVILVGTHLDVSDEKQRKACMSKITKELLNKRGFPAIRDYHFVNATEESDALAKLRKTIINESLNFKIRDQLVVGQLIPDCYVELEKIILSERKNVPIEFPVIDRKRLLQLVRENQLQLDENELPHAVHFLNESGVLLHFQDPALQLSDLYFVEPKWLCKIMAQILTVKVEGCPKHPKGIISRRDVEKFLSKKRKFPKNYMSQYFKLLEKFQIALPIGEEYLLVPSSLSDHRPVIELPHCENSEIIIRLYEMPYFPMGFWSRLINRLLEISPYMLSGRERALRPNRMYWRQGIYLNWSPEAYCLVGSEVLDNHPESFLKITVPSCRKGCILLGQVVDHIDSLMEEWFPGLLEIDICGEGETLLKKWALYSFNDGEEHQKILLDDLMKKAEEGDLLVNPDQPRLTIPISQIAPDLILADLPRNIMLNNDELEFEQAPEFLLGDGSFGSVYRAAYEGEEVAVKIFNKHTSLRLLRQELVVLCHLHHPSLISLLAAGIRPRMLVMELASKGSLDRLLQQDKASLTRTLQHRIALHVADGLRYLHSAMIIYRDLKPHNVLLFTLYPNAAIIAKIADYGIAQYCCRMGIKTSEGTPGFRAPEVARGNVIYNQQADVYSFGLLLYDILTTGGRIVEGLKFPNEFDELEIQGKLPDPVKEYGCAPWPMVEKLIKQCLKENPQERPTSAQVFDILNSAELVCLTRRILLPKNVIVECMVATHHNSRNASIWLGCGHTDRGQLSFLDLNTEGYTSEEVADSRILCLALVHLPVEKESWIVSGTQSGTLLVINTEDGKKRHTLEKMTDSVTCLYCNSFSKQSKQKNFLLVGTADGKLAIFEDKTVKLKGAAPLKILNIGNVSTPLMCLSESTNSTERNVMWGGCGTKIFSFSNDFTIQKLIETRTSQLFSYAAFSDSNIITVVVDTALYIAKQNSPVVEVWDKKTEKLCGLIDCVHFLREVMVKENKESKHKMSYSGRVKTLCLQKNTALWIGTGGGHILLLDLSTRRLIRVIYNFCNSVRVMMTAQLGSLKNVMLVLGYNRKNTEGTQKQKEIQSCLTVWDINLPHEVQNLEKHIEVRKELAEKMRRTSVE
Description: (§1) The experimental method was as follows.
(§2) Specific kinase/substrate pairs were prepared in reaction buffer (20 mM Hepes pH 7.5, 10 mM MgCl2, 1 mM EGTA, 0.02% Brij35, 0.02 mg/ml BSA, 0.1 mM Na3VO4, 2 mM DTT, 1% DMSO) along with the required cofactors. The compounds were transferred to the reaction, and after 20 min, a mixture of ATP (Sigma) and ^33P ATP (PerkinElmer) was added to a final concentration of 10 μM. The reaction was carried out at 25° C. for 120 min and then dropped onto P81 ion exchange filter paper (Whatman). […] IC50 values were obtained using Prism (GraphPad Software).

[2] = biological target: T2, G2019S mutant of LRRK2 (leucine-rich repeat kinase 2) (Homo sapiens, UniProt Q5S007, G2019S); assay: HotSpot radiometric kinase assay (Reaction Biology), LRRK2 G2019S mutant inhibitory activity; format: biochemical; settings: 10 μM ATP, 25° C., 120 min
T2 construct: purchased Reaction Biology Corporation
T2 sequence (Q5S007 whole entry G2019S): as the sequence (Q5S007 whole entry) above, with G2019S counted along it
Description: as §1, §2

SMILES	IC50 [1] [nM]	IC50 [2] [nM]
CN1CCNc2nc(ncc2Cl)Nc2cccc(c2)C1=O [Example 2, 1^5-chloro-5-methyl-2,5,8-triaza-1 (2,4)-pyrimidina-3 (1,3)-benzenacyclooctaphane-4-one]	17	19.3
O=C1NCCCCNc2nc(ncc2Cl)Nc2cccc1c2 [Example 3, 1^5-chloro-2,5,10-triaza-1 (2,4)-pyrimidina-3 (1,3)-benzenacyclodecarphane-4-one]	15.9	13.1
COc1ccc2cc1Nc1ncc(F)c(n1)NCCN(C)C2=O [Example 7, 1^5-fluoro-3^6-methoxy-5-methyl-2,5,8-triaza-1 (2,4)-pyrimidina-3 (1,3)-benzenacyclooctaphane-4-one]	35.5	34.1
COc1ccc2cc1C(=O)N(C)CCNc1nc(ncc1Cl)N2 [Example 9, 1^5-chloro-3^4-methoxy-5-methyl-2,5,8-triaza-1 (2,4)-pyrimidina-3 (1,3)-benzenacyclooctaphane-4-one;2,2,2-trifluoroacetate]	91.1	79.7
COc1ccc2cc1C(=O)N(C)CCCCNc1nc(ncc1Cl)N2 [Example 18, 1^5-chloro-3^4-methoxy-5-methyl-2,5,10-triaza-1 (2,4)-pyrimidina-3 (1,3)-benzenacyclodecarphane-4-one;2,2,2-trifluoroacetate]	142	145
CCc1ccc2cc1Nc1ncc(Cl)c(n1)NCCCCN(C)C2=O [Example 19, 1^5-chloro-3^6-ethyl-5-methyl-2,5,10-triaza-1 (2,4)-pyrimidina-3 (1,3)-benzenacyclodecarphane-4-one;2,2,2-trifluoroacetate]	13.4	6.86
COc1ccc2cc1Nc1ncc(Cl)c(n1)N(C)CCN(C)C2=O [Example 20, 1^5-chloro-3^6-methoxy-5,8-dimethyl-2,5,8-triaza-1 (2,4)-pyrimidina-3 (1,3)-benzenacyclooctaphane-4-one;2,2,2-trifluoroacetate]	3.44	3.51
CCN1CCNc2nc(ncc2Cl)Nc2cc(ccc2OC)C1=O [Example 21, 1^5-chloro-5-ethyl-3^6-methoxy-2,5,8-triaza-1 (2,4)-pyrimidina-3 (1,3)-benzenacyclooctaphane-4-one;2,2,2-trifluoroacetate]	11.1	3.09
COc1ccc2cc1Nc1ncc(Cl)c(n1)NCCN(C(C)C)C2=O [Example 22, 1^5-chloro-5-isopropyl-3^6-methoxy-2,5,8-triaza-1 (2,4)-pyrimidina-3 (1,3)-benzenacyclooctaphane-4-one]	5.06	0.98
COc1ccc2cc1Nc1ncc(Cl)c(n1)N(C)CCCN(C)C2=O [Example 23, 1^5-chloro-3^6-methoxy-5,9-dimethyl-2,5,9-triaza-1 (2,4)-pyrimidina-3 (1,3)-benzenacyclononapane-4-one;2,2,2-trifluoroacetate]	0.667	< 0.254
COc1ccc2cc1Nc1ncc(C(F)(F)F)c(n1)N(C)CCN(C)C2=O [Example 25, 3^6-methoxy-5,8-dimethyl-1^5-(trifluoromethyl)-2,5,8-triaza-1 (2,4)-pyrimidina-3 (1,3)-benzenacyclooctaphane-4-one;2,2,2-trifluoroacetate]	62.9	25.7
COc1ccc2cc1Nc1ncc(Cl)c(n1)N(C)CCCCN(C)C2=O [Example 27, 1^5-chloro-3^6-methoxy-5,10-dimethyl-2,5,10-triaza-1 (2,4)-pyrimidina-3 (1,3)-benzenacyclodecarphane-4-one;2,2,2-trifluoroacetate]	5.42	2
COc1ccc2cc1Nc1ncc(C(F)(F)F)c(n1)N(C)CCCCN(C)C2=O [Example 29, 3^6-methoxy-5,10-dimethyl-1^5-(trifluoromethyl)-2,5,10-triaza-1 (2,4)-pyrimidina-3 (1,3)-benzenacyclodecarphane-4-one;2,2,2-trifluoroacetate]	1.79	0.72
CN1CCCN(C)c2nc(ncc2C(F)(F)F)Nc2cc(ccc2OC(F)(F)F)C1=O [Example 30, 5,9-dimethyl-3^6-(trifluoromethoxy)-1^5-(trifluoromethyl)-2,5,9-triaza-1 (2,4)-pyrimidina-3 (1,3)-benzenacyclononapane-4-one]	1.73	0.574
CN1CCCN(C)c2nc(ncc2C(F)(F)F)Nc2cc(ccc2C(F)(F)F)C1=O [Example 31, 5,9-dimethyl-15,36-bis(trifluoromethyl)-2,5,9-triaza-1 (2,4)-pyrimidina-3 (1,3)-benzenacyclononapane-4-one]	58.1	33.4
CN1CCCNc2nc(ncc2C(F)(F)F)Nc2cc(ccc2OC2COC2)C1=O [Example 38, 5-methyl-3^6-(oxetane-3-yloxy)-1^5-(trifluoromethyl)-2,5,9-triaza-1 (2,4)-pyrimidina-3 (1,3)-benzenacyclonaphane-4-one]	22.2	46.7
CN1CCCNc2nc(ncc2Cl)Nc2cc(ccc2OC(F)(F)F)C1=O [Example 40, 1^5-chloro-5-methyl-3^6-(trifluoromethoxy)-2,5,9-triaza-1 (2,4)-pyrimidina-3 (1,3)-benzenacyclonaphane-4-one]	5.47	3.81
CN1CCCNc2nc(ncc2C(F)(F)F)Nc2cc(ccc2OC(F)(F)F)C1=O [Example 41, 5-methyl-36-(trifluoromethoxy)-1^5-(trifluoromethyl)-2,5,9-triaza-1 (2,4)-pyrimidina-3 (1,3)-benzenacyclonaphane-4-one]	4.82	3.08
COc1ccc2cc1Nc1ncc(Cl)c(n1)OCCCN(C)C2=O [Example 42, 15-chloro-3^6-methoxy-5-methyl-9-oxa-2,5-diaza-1 (2,4)-pyrimidina-3 (1,3)-benzenacyclonaphane-4-one]	5.91	5.14
COc1ccc2cc1Nc1ncc(C(F)(F)F)c(n1)OCCCN(C)C2=O [Example 43, 3^6-methoxy-5-methyl-1^5-(trifluoromethyl)-9-oxa-2,5-diaza-1 (2,4)-pyrimidina-3 (1,3)-benzenacyclonaphane-4-one]	4.87	2.07
CN1CCCOc2nc(ncc2C(F)(F)F)Nc2cc(ccc2OC(F)(F)F)C1=O [Example 44, 5-methyl-3^6-(trifluoromethoxy)-1^5-(trifluoromethyl)-9-oxa-2,5-diaza-1 (2,4)-pyrimidina-3 (1,3)-benzenacyclonaphane-4-one]	16.2	10.5
COc1c(F)cc2cc1Nc1ncc(C(F)(F)F)c(n1)OCCCN(C)C2=O [Example 45, 3^5-fluoro-3^6-methoxy-5-methyl-1^5-(trifluoromethyl)-9-oxa-2,5-diaza-1 (2,4)-pyrimidina-3 (1,3)-benzenacyclonaphane-4-one]	10.2	4.8
CN1CCCNc2nc(ncc2C(F)(F)F)Nc2cc(ccc2OC2CC2)C1=O [Example 46, 36-cyclopropoxy-5-methyl-1^5-(trifluoromethyl)-2,5,9-triaza-1 (2,4)-pyrimidina-3 (1,3)-benzenacyclonaphane-4-one]	6.8	2.5
